Assay results: ChEMBL document CHEMBL1130134, “Synthesis of carboranes containing an azulene framework and in vitro evaluation as boron carriers” (J Med Chem, 1997)

Experiments:
B16 [1] = assay: Compound was tested for the in vitro growth inhibition of B-16 melanoma cells after incubation for 3 days (cytotoxicity), the dose that failed to inhibit cell growth by more than 50% was determined; type: functional, cell-based; conditions: Mus musculus, B16, 72 h
B16 [2] = assay: Boron incorporation into B-16 melanoma cells(1000000 cells) after 24 hours incubation (10.8 ug of B/mL).; type: functional, Mus musculus

CC(C)(c1ccc(O)cc1)c1ccc(O)cc1 [BISPHENOL A]
IC50 (B16 [1]): 8.6 mM | B incorporation (B16 [2]): 0.31 µg
